# Entries after “also recorded” stand apart in the source; their conditions may differ.
# How the values were obtained:
# [1] = tested on: secondary edema following focal hypoxic-ischemic insult; settings: experimental animal models; cited from earlier work
# [2] = tested on: newborn infants; settings: newborn infants or heart surgery using deep hypothermic circulatory arrest; cited from earlier work
# [3] = tested on: CA1 pyramidal neurons in organotypic hippocampal slice cultures; type: cell-based, Sprague-Dawley rat
# Experimental: Organotypic hippocampal slice cultures were prepared from 9- to 12-day old Sprague-Dawley rat pups (Charles River, Wilmington, Del.) of both sexes (Stoppini et al., 1991). Rats were decapitated under deep ketamine anesthesia, the hippocampi rapidly dissected out and placed immediately into ice-cold dissection medium containing: 3.5 mM KCl, 0.5 mM NaH2PO4, 10 mM MgSO4, 5 mM NaHCO3, 118 mM n-methyl-D-glucosamina, 1.1 mM KH2PO4, 10 mM HEPES, 20 mM D-glucose, pH 7.35, gassed with 95% O2/5% CO2. Transverse slices of hippocampus plus entorhinal cortex were cut using a spring-loaded grid of 20 μm diameter wires spaced 400 μm apart. Slices were immediately transferred into dissection medium, separated and placed on semi-permeable membrane tissue culture inserts (Millipore Corporation, Bedford, Mass.) in a 6-well plate, each well containing 1 ml of culture medium (50% Minimum Essential Medium, 25% Hank's balanced salt solution, 25% heat-inactivated horse serum, 13 mM HEPES, 2.5 mg/ml glucose). Cultures were maintained at 35° C. in a humidified 5% CO2 incubator and medium was changed every 2-3 days.
# After 6-10 days in culture, hippocampal slice cultures were exposed to hypoxia-ischemia (HI) by transient oxygen and glucose deprivation. Slices were transferred into another six-well plate containing 1 ml of Ringermannitol glucose-free medium per well, containing 1.25 mM CaCl2, 0.9 mM MgSO4, 5.4 mM KCl, 0.44 mM KH2PO4, 137 mM NaCl, 4.2 mM NaHCO3, 0.35 mM NaH2PO4, 16.7 mM HEPES, and 27.5 mM mannitol, and placed in a hypoxic box continuously gassed with 95% N2/5% CO2 for 45 min. They were then returned to normal medium with carbon dioxide until measurement of neuronal death.
# Carbenoxolone (disodium salt) was purchased from Sigma (St. Louis, Mo.), propidium iodide and carboxyfluorescein diacetate from Molecular Probes (Eugene, Oreg.). Cleaved caspase-3 antibody was purchased from Cell Signaling (Beverly, Mass.).
# Media containing 1 μM PI was applied for 10 min to slices and PI-labeled dead cells imaged using […] filters. IPLab (Signal Analytics Corp.) and NIH image analysis programs were used to quantitate total fluorescence intensity for equal regions of interest within the CA1 pyramidal cell body layer (stratum pyramidale).
# [4] = tested on: gap junction coupling in hippocampal slice cultures; test: Fluorescence recovery after photobleaching (FRAP) in CA1 fields of hippocampal slice cultures; type: cell-based, Sprague-Dawley rat; design: dose or concentration left out as unconfirmed
# Experimental: Fluorescence recovery in CA1 fields of hippocampal slice cultures was evaluated as in Wade et al., 1986. Hippocampal slice cultures were loaded by 45 min application of carboxyfluorescein diacetate (30 μM). CA1 fields of view were photobleached for 2 min using the 488 nm laser line of a confocal microscope (Nikon RCM 8000) and images acquired at low power at 1 min intervals thereafter. Quantitative image analysis was performed using Polygon-Star software (Nikon).
# [5] = tested on: caspase-3; test: Western blot of activated caspase-3 in whole brain 24 hr after intrauterine HI; type: in vivo, rat; settings: for HI-induced increase of activated caspase-3 in whole brain: 75 mg/kg i.p. immediately after HI, 24 hr
# Experimental: Protein was extracted from whole-brain 24 hr following HI and concentration determined with a BCA Protein Assay Kit (Pierce, Rockford, Ill.). Twenty-five μg protein/sample was applied per lane and separated by electrophoresis in 10% or 10-20% SDS-polyacrylamide gels (BioRad, Hercules, Calif.) and transferred to nitrocellulose membranes (Schleicher and Schuell, Keene, N.H.). Membranes were blotted […] with cleaved caspase-3 ([…]) antibody (1:700) overnight at 4° C., and then incubated in horseradish peroxidase-conjugated anti-rabbit IgG 1:1500. […] As an internal control, glyceraldehyde-3-phosphate dehydrogenase (GAPDH) was blotted with horseradish peroxidase-conjugated goat antimouse IgG at a concentration of 1:4000. Densitometriy of chemiluminescent bands was quantified using Scion Image densitometer software (NIH), and band densities normalized to GAPDH density in the same gel.
# [6] = tested on: neonatal rats with seizures following intrauterine HI insults; test: Behavioral and electrographic (EEG) seizures after intrauterine hypoxic-ischemia; type: in vivo, rat; design: ischemic pups that died: dose or concentration left out as unconfirmed; settings: for behavioral seizures following HI insults: i.p. at the onset of motor seizures; for electrographic seizures (EEG epileptiform activity): i.p., EEG 40 min after administration, one pup
# From the text: Rat pups were delivered by C-section. One group was subjected to intra-uterine hypoxic-ischemia, the control group was also delivered by caesarian-section but not subjected to a period of hypoxic-ischemia.
# Surviving animals in all groups were examined neuropathologically at 21 days following delivery (P21).
# [7] = tested on: rat pups subjected to intrauterine hypoxic-ischemia; test: Intrauterine hypoxic-ischemia (transient global anoxia during C-section delivery): survival, growth, histopathology; type: in vivo; settings: for survived reperfusion / mortality: 75 mg/Kg
# Experimental: Sprague Dawley fetuses were subjected to transient global anoxia during C-section delivery (Bjelke et al., 1991; Brake et al., 1997). Pregnant rats at term (21 days gestation) were decapitated, the abdomen incised, and the uterus was quickly isolated from its blood supply and surrounding fat tissue and connective tissue. Acute anoxia was induced by immersing the intact uterus containing the fetuses into 37° C. saline for 12.5-15 min. […] Blood gases and pH Samples were analyzed for blood gases and pH on a blood gas monitor (RapidLab 855, Bayer,UK).
# Animals were deeply anesthetized with ketalar and perfused via a transcardiac site after which brains were removed, rinsed with saline and fixed in formaldehyde buffered to pH 7.35. Brains were cut into sagittal sections, sliced in 2 mm cross-sections (Braintree Scientific Inc, Mass.), dehydrated with a tissue processor (TP1050, Leica Instruments, Germany), embedded in paraffin, sectioned with a Leica freezing microtome, and stained with haematoxylon-eosin.
# Groups were compared by ANOVA or Student's t-test, as appropriate, with group size pre-selected based on P<0.05 significance criterion.
# [8] = tested on: synaptic transmission in CA1 stratum radiatum of hippocampal slice cultures; test: Schaffer collateral-evoked excitatory postsynaptic potentials in slice cultures 24 hr post-HI; type: cell-based, Sprague-Dawley rat; settings: 75 μM, 45 min HI
# Experimental: Organotypic hippocampal slice cultures were prepared from 9- to 12-day old Sprague-Dawley rat pups (Charles River, Wilmington, Del.) of both sexes (Stoppini et al., 1991). Rats were decapitated under deep ketamine anesthesia, the hippocampi rapidly dissected out and placed immediately into ice-cold dissection medium containing: 3.5 mM KCl, 0.5 mM NaH2PO4, 10 mM MgSO4, 5 mM NaHCO3, 118 mM n-methyl-D-glucosamina, 1.1 mM KH2PO4, 10 mM HEPES, 20 mM D-glucose, pH 7.35, gassed with 95% O2/5% CO2. Transverse slices of hippocampus plus entorhinal cortex were cut using a spring-loaded grid of 20 μm diameter wires spaced 400 μm apart. […]
# Slice cultures were placed in an interface recording chamber between artificial cerebrospinal fluid (ACSF; perfusion rate 3 ml/min) and a humidified atmosphere of 95% O2/5% CO2. […] Extracellular excitatory postsynaptic potentials (EPSPs) were recorded (2 M NaCl-filled electrodes) in stratum radiatum and elicited by bipolar Schaffer collateral stimulation (intensities 20-200 μA), recorded using an Axopatch 200A amplifier in current-clamp mode.
# [9] = intraperitoneal and subcutaneous injections; cited from earlier work
# [10] = tested on: brain damage in immature fetuses and newborn infants; settings: randomized double-blind trials; cited from earlier work
# [11] = tested on: infarcts after stroke; settings: applied before the induction of stroke; cited from earlier work
# [12] = i.p. to newborn rats at least 15 min after HI
smiles,measurement,setting,value
Oc1ncnc2[nH]ncc12 [Allopurinol],severity of secondary edema,[1],reduced
same,outcome in clinical trials,[2],has not been successful
"CC1(C)[C@@H](OC(=O)CCC(=O)O)CC[C@]2(C)[C@H]3C(=O)C=C4[C@@H]5C[C@@](C)(C(=O)O)CC[C@]5(C)CC[C@@]4(C)[C@]3(C)CC[C@@H]12 [carbenoxolone, Carbenoxolone]",viability or morphology of control organotypic slice cultures,[3],did not detectably alter
same,neuroprotection when applied in vitro,[3]; 75 μM,marked neuroprotection
same,delayed death of CA1 pyramidal neurons assessed by PI staining intensity,"[3]; 75 μM added 30 min prior to, during and 60 min after a 45 min HI insult, 24 hr following HI",markedly reduced
same,PI fluorescence 24 hr post-HI in hippocampal slice culture,"[3]; 75 μM, 60 min after the end of the HI episode (FIG. 2c)",reduced PI fluorescence
same,gap junction coupling in slice cultures,[4],effective at reducing gap junction coupling
same,HI-induced increase of activated caspase-3 in whole brain,[5],largely prevented
same,HI-induced increase of activated caspase-3 in whole brain,[5]; listed as Carbenoxolone,reduced the activation
same,"activation of caspase-3, reduced to","[5]; 75 mg/kg i.p. immediately after perinatal HI, 24 hr post-HI, relative to HI alone",43±15%
same,caspase-3 band densities (normalized to GAPDH),"[5]; HI+Carb, 75 mg/kg i.p., 24 hr post-HI",302±115
same,behavioral seizures following HI insults,[6],absence of seizures; also recorded: abolishes
same,behavioral seizures following HI insults,[6]; listed as Carbenoxolone,stopped
same,electrographic seizures (EEG epileptiform activity),[6],loss of electrographic epileptiform activity; also recorded: abolishes
same,electrographic seizures (EEG epileptiform activity),[6]; listed as Carbenoxolone,stopped
same,ischemic pups that died,[6]; treated with carbenoxolone,One of 12
same,survived reperfusion,[7]; 4 hrs,76.5±9%
same,mortality,[7]; 4 hrs of reoxygenation/recirculation after perinatal HI,23.5%
same,survived reperfusion,[7]; 24 hrs,73±9.5%
same,mortality,[7]; 24 hrs after perinatal HI,27%
same,survived reperfusion,[7]; 48 hrs,70±12.5%
same,mortality,[7]; 48 hrs after perinatal HI,30%
same,cerebellar damage,[7]; 75 mg/kg i.p. after intrauterine HI,preventing cerebellar damage
same,extent of histopathological damage in the hippocampus and neocortex,"[7]; 75 mg/kg i.p. after intrauterine HI, n=5",dramatically reduced
same,long-term development assessed by size,"[7]; 75 mg/kg immediately after intrauterine HI, compared to HI alone (FIG. 3d)",improves
same,survival rate,[7]; 21 days post-HI,70±12%
same,crossing of the blood-brain barrier,[7]; [12],cross the blood-brain barrier in sufficient time and concentration
same,long-term damage induced by HI,[7]; [12],markedly reduce
same,body weight,"[7]; postnatal day 21, HI rats",29.2 ± 3 g
same,protection against loss of synaptic transmission in CA1 stratum radiatum (EPSP),[8],very effective
same,crossing of normoxic foeto-placental and adult blood-brain barriers,[9],has been shown to cross
O=S(=O)([O-])[O-].[Mg+2] [magnesium sulfate],protective effect against brain damage,[10],did not provide a protective effect
CCCCCCCCO [octanol],infarct size,[11],reduced infarct size; also recorded: reduce the size of infarcts

# From patent US20040058852A1, “Use of gap-junction blockers in neurodegenerative disease” (priority 2002, published 2004)
